From US9403866B2, “Compositions and methods for increasing telomerase activity” (Telomerase Activation Sciences, Inc., priority 2009, dated 2016)

Assays:
[1] = molecular target: telomerase (Homo sapiens, UniProt O14746); assay: Telomerase activation in short-term liquid culture of human bone marrow-derived CD34+ hematopoietic progenitor cells (gel-TRAP); type: cell-based; details: huCD34+ cells, 100 nM, 3 days
Method: Human bone marrow-derived CD34+ hematopoietic progenitor cells were obtained from a healthy donor.
Human bone marrow-derived CD34+ hematopoietic progenitor cells were grown in Iscove's Modified Dulbecco's Medium (IMDM) (Invitrogen, CA)+10% fetal bovine serum (FBS) for 3 days in the presence of compound 4 (1 uM, 100 nM, 10 nM), vehicle (1% DMSO), or nothing. Telomerase activity increased by ˜60-70% in the 100 nM compound 4 sample relative to the vehicle control (as assessed by traditional gel-TRAP assay).

[2] = molecular target: T1, telomerase (Mus musculus, UniProt O70372); assay: Telomerase activity in short-term liquid culture, lineage-depleted bone marrow cells from wild type mice; type: cell-based; details: 100 nM and 1 uM, three days
T1 construct: endogenous in cells; host or cells: lineage-depleted bone marrow cells, wild-type mice
T1 sequence (O70372 1-1122): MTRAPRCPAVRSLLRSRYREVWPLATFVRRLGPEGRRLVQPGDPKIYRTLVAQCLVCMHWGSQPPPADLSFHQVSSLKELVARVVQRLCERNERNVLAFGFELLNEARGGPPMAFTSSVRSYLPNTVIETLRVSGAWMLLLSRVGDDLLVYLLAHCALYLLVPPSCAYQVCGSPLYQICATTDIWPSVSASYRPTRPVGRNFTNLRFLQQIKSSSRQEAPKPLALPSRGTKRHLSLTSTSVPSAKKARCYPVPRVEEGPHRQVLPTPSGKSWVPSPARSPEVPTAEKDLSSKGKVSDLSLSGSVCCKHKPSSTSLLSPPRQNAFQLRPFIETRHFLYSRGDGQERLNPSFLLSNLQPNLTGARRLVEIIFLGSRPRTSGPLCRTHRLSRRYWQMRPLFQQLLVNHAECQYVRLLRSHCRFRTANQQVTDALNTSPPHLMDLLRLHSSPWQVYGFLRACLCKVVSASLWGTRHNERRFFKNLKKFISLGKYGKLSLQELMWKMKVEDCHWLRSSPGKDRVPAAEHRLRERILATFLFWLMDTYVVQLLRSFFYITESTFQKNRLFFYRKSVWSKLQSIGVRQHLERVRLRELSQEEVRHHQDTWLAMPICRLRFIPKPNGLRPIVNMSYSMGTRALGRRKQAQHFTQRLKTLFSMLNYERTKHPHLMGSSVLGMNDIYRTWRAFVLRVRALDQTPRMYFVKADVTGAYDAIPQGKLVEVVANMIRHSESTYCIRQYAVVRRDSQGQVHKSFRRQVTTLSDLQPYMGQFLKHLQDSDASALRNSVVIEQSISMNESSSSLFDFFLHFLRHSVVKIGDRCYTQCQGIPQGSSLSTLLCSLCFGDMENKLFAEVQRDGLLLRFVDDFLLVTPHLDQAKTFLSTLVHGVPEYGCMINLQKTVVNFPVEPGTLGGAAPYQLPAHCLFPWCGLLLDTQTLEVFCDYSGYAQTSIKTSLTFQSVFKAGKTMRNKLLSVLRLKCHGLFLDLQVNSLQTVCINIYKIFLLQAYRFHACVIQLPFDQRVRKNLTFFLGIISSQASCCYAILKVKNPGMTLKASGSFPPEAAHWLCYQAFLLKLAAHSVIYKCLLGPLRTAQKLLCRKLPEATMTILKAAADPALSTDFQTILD
Method: (§1) Lineage-depleted bone marrow cells from mTERT heterozygous and wild type mice were grown in IMDM+15% FBS containing stem cell factor (Kitl), IL-3, and IL-11 for three days in the presence of compound 4 (1 uM, 100 nM, or 10 nM), vehicle (0.1% DMSO), or nothing. Telomerase activity in the wild-type cells increased by 40-50% when treated with 100 nM and 1 uM compound 4, relative to the vehicle-treated control.

[3] = system: Matrigel plugs; bone marrow stem/progenitor cells; assay: Administration to aging Tert (+/-) mice: hemoglobin and total RNA in Matrigel plugs, number of bone marrow stem/progenitor cells; type: in vivo, Tert (+/-) mice on a C57BL/6 background; details: 10 mg/kg/day PO (BID)
Method: Aging Tert (+/−) mice on a C57BL/6 background (8-9 months) were dosed with compound 4 at 10 mg/kg/day PO (BID) in 2% ethanol. Mice were pre-dosed for 1 day (Day −1). Matrigel™ was injected subcutaneously in the abdomen on Day 0, and plugs were harvested on Day 12.
One half of the plug was analyzed for telomerase activity and hemoglobin content, which is indicative of blood vessel formation (RBC cell buffer extraction, followed by M-PER extraction). The other half of the plug was processed for histology.
The Matrigel™ plug has a 1.2-fold increase in hemoglobin levels (p<0.2) n=15/group for mice treated with compound 4.
Total RNA, which reflects cell number, was increased 1.5-fold (p<0.1) n−15/group in Matrigel™ plugs after treatment with compound 4.
Bone marrow stem and progenitor cells were purified using lineage depletion magnetic sorting technology (Miltenyi MACS columns).
The number of purified bone marrow stem/progenitor cells increased 1.5-fold (p<0.1) n=6/group in mice treated with compound 4.

[4] = parameters: species or system male Beagle dogs; details: male, Beagle, dog, in vivo, po, 10 mg/kg
Method: The plasma level of a compound following a single intravenous and oral administration in male Beagle dogs was determined. Plasma samples were collected and used to determine the plasma concentration of the compound and metabolites. In addition tissue samples, including whisker samples and PBMC cells were collected for telomerase activity analysis.
Male Beagle dogs were divided into treatment groups according to Table 5. The dogs were provided ad libitum SLAC-MO1 #W080701 (Shanghai Laboratories Animal Center, Shanghai, China) throughout the in-life portion of the study with the exception of the overnight fasting period prior to oral dosing. Water was available ad libitum.
The compounds were dissolved in 2% EtOH/98% water […] to yield a final concentration of 2.5 mg/ml and 1 mg/ml for both intravenous and oral administration, respectively. The concentration of each compound was confirmed by HPLC analysis.
Doses were administered intravenously via the left femoral vein and then by oral dosing one week later. Body weights were taken on the day of dose administration. Dose volume was determined based on individual body weight taken on day of dosing.
Blood samples (approximately 250 μL) were collected via right femoral vein into tubes containing K2-EDTA anticoagulant and 1 mg/ml NaF at appropriate time points. Blood was stored on ice and then plasma separated via centrifugation (8000 rpm×6 minutes). The plasma was stored at […] until LC-MS/MS analysis.

[5] = molecular target: T1, telomerase; assay: Telomerase activity in short-term liquid culture, lineage-depleted bone marrow cells from mTERT heterozygous mice; type: cell-based; details: 1 uM, three days
Method: as §1
Telomerase activity in the mTERT heterozygous cells increased by 50% when treated with 1 uM compound 4, relative to the vehicle-treated control.

[6] = system: lung fibroblasts; assay: Alamar Blue Proliferation Assay in lung fibroblasts; type: cell-based, human; details: 3 days
Method: Human SAECs or human fibroblasts were grown in the presence of different concentrations of compound 4 in a final concentration of 1% DMSO in the medium. After 3 days the cells were harvested and proliferation was measured using the Alamar Blue Proliferation Assay.

telomerase (Homo sapiens, UniProt O14746), sequence (O14746 whole entry): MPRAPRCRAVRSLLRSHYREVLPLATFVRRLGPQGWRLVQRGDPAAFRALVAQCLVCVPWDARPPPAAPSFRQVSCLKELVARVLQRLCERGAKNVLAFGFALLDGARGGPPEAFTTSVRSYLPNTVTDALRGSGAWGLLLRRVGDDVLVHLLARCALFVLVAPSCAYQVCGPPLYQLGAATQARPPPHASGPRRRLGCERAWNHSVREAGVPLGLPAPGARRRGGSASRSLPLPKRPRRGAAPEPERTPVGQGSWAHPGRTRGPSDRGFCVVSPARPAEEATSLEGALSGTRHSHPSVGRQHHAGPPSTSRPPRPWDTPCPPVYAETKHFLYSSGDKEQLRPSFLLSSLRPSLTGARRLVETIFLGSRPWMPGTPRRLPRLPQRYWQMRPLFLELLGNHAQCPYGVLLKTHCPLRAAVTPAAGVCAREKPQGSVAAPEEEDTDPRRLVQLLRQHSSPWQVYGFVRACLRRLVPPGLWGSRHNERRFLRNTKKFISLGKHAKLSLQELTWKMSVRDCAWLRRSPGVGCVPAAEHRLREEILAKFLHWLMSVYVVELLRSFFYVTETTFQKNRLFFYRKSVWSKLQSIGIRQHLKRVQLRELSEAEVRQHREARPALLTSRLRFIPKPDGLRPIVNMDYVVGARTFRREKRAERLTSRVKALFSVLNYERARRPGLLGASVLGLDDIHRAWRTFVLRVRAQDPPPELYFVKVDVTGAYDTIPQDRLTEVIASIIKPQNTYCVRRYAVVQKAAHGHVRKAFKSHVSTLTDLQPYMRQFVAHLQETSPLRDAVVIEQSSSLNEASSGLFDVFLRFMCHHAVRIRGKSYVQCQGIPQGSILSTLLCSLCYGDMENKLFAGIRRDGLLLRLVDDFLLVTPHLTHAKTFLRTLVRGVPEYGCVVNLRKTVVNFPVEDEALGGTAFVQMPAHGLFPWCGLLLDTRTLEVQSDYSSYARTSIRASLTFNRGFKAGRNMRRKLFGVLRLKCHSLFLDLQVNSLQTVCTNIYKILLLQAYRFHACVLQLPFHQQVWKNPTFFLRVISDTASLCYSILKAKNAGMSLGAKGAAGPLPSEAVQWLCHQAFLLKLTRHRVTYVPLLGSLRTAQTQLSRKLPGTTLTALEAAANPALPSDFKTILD

CC(C)C(N)C(=O)OC1CCC23CC24CCC2(C)C(C5(C)CCC(C(C)(C)O)O5)C(O)CC2(C)C4CC(O)C3C1(C)C (stereo not drawn) [Compound 4, 2-(L)-Amino-3-methyl-butyric acid 6α,16β-dihydroxy-17-[5-(1-hydroxy-1-methyl-ethyl)-2-methyl-tetrahydro-furan-2-yl]-4,4,13,14-tetramethyl-tetradecahydro-cyclopropa[9,10]cyclopenta[a]phenanthren-3β-yl ester]
Telomerase activity increase relative to the vehicle control [1]: 60-70% | Telomerase activity increase relative to the vehicle-treated control [2]: 40-50% | Total RNA (reflects cell number) increase in Matrigel plugs ([3]; p<0.1): 1.5 fold | increase in number of purified bone marrow stem/progenitor cells ([3]; p<0.1): 1.5 fold | increase in hemoglobin levels in the Matrigel plug ([3]; p<0.2): 1.2 fold | Bioavailability % F [4]: 47% | Telomerase activity increase relative to the vehicle-treated control [5]: 50% | effect on short-term proliferation [6]: No effect
